Values of other authors as cited in patent US11167084B2, “Control device for controlling the administration of propofol to a patient” (Fresenius Vial SAS, priority 2016, dated 2021).
Converted amounts (≈) assume the structure as drawn.

Settings: Hill equation relating effect-site concentration to BIS; Emax=E0=100, y=2; FIG. 1 from T. A. Lim, Br J Anaesth 2006

In the case of `CC(C)c1cccc(C(C)C)c1O` [propofol], the “EC50 (propofol effective concentration 50, effect-site)” value is given as 4.14 µg/mL (≈ 23.2 µM).
